Structures are written as SMILES.

For test [1], the system named is patient with nose bleeding and atrophy of the nasal cavity mucous membranes. The conditions noted are these: person, aqueous solution 2.0 mg/ml with salicylic acid 0.5 mg/ml, one to two drops, three to four times a day. The method, then: The patient was a person with a history of nose bleeding in small quantities and sensation of dryness in the nose and eyes. The patient also reported a long history of joint pain, but no other remarkable antecedents.
The treatment for patient two began with an aqueous solution of (S)-(1-methyl-2-pyrrolidinyl)-pyridine at a concentration of 2.0 mg/ml and salicylic acid at a concentration of 0.5 mg/ml at a dose of one to two drops (about 50 μL per drop) followed by forced inhalation. The dose was repeated three to four times a day.

For the next test, the system named is human cancer cells. Conditions: experimental cultures of human cancer cells; concentration 5 mg/ml.
Test [2] has as its system patient with chronic nasal congestion. Conditions: aqueous solution 1.00 mg/ml with salicylic acid 0.5 mg/ml, two drops in each nostril, three or four times a day, follow-up one month later.
Description: The patient also complained of frequent headaches in the forehead region.
The dose was repeated three or four times a day. […] It was felt by the clinician that the possible causative agent/s for the chronic nasal congestion may have been external environment factors such as cold, dust, air pollution, second-hand cigarette smoke and/or seasonal allergens such as pollens.

Turning to `CN1CCC[C@H]1c1cccnc1` [(S)-(1-methyl-2-pyrrolidinyl)-pyridine], the “nasal bleeding (patient report)” value in test [1] (follow-up one month later) is listed as “ceased”. Besides, in test [1] (since the first week of treatment), the “sensation of dryness in the nose and eyes (patient report)” value is on record as “diminished markedly”. The same compound gave an inhibition of proliferation in the test with human cancer cells of 95%. For the same compound, the “patient-reported improvement of symptoms (100% being what the patient considered normal)” value in test [2] was 90%.

The values above are taken from patent US10639300B2, “Compositions and methods for treating nasal and paranasal mucosa diseases with nicotinic acetylcholine receptor agonists” (priority 2016, dated 2020).
